Measurements: patent publication US7345088B2, “Pharmaceutical composition for use for the treatment of malignancies comprising in combination a bisphosphonates, a cox-2 inhibitor and a taxol” (Penn State Research Foundation, priority 2001, dated 2008)

Experiments:
Assay type in all cases: cell-based
[1] = system: DU-145 human prostate carcinoma cell line; assay: MTT tetrazolium dye assay, cell number after 3 day treatment, DU-145; conditions: DU-145 cells
Procedure: Methods: The effect of combining the COX-2 inhibitor (SC236) and zoledronic acid compared to either agent alone was tested in the DU-145 human prostate carcinoma cell line. Cell number was determined after a 3 day treatment using the MTT tetrazolium dye assay.

[2] = system: HER-2/neu transfected human breast cancer cell line (MCF/18); assay: MTT tetrazolium dye assay, cell number after 3-day incubation, MCF/18; conditions: MCF/18 cells
Procedure: (§1) Methods: The effect of combining the COX-2 inhibitor (SC 236) and zoledronic acid compared to either agent alone was tested in a HER-2/neu transfected human breast cancer cell line (MCF/18) and the control vector transfected line (MCF/neo). Cell number was determined after a 3-day incubation using the MTT tetrazolium dye assay.
as §1, with “(SC236) with” for “(SC 236) and”, “and/or taxotere” for “compared to either agent alone”

[3] = system: control vector transfected human breast cancer cell line (MCF/neo); assay: MTT tetrazolium dye assay, cell number after 3-day incubation, MCF/neo; conditions: MCF/neo cells
Procedure: as §1
as §1, with “(SC236) with” for “(SC 236) and”, “and/or taxotere” for “compared to either agent alone”

[4] = single agent 1-10 μM, 3-day incubation (Example 19)
[5] = single agent, concentration not given, 3-day incubation (Example 20)

| SMILES | growth inhibition ([1]; 5 μM) [%] | growth inhibition ([1]; 1-25 μM) | growth inhibition [2, 4] | growth inhibition [3, 4] | growth inhibition ([1]; 1-10 μM) | inhibition at 3 µM ([1]; Homo sapiens, 72 h, 3 μM, read-out: growth inhibition) [%] | growth inhibition [2, 5] | growth inhibition [3, 5] |
| --- | --- | --- | --- | --- | --- | --- | --- | --- |
| NS(=O)(=O)c1ccc(-n2nc(C(F)(F)F)cc2-c2ccc(Cl)cc2)cc1 [SC236] | 40 | 0-77% | 15-41% | 18-53% | – | – | – | – |
| O=P(O)(O)C(O)(Cn1ccnc1)P(=O)(O)O [zoledronic acid, 2-(imidazol-1yl)-1-hydroxyethane-1,1-diphosphonic acid] | – | – | 9-53% | 8-67% | 8-70% | 23 | 9%-53% | 18%-67% |
